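48-hour exposure; five concentrations; linearly interpolated endpoints. At the GI50, growth is halved. Definition used: TGI = concentration required for complete inhibition of growth.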
Experiments:
Assay in all cases: DTP human tumour cell line panel, 48 h
[1] = test system: OVCAR-8 ovarian
[2] = test system: SK-OV-3 ovarian
[3] = test system: OVCAR-5 ovarian
[4] = test system: PC-3 prostate
[5] = test system: SR leukemia
[6] = test system: SNB-75 CNS
[7] = test system: UO-31 renal
[8] = test system: HL-60(TB) leukemia
[9] = test system: SNB-19 CNS
[10] = test system: COLO 205 colon
[11] = test system: RXF 393 renal
[12] = test system: BT-549 breast
[13] = test system: HS 578T breast
[14] = test system: MOLT-4 leukemia
[15] = test system: HT29 colon
[16] = test system: KM12 colon
[17] = test system: HCT-15 colon
[18] = test system: CCRF-CEM leukemia
[19] = test system: UACC-257 melanoma
[20] = test system: HCT-116 colon
[21] = test system: SW-620 colon
[22] = test system: OVCAR-4 ovarian
[23] = test system: SF-295 CNS
[24] = test system: NCI-H522 lung
[25] = test system: DU-145 prostate
[26] = test system: MALME-3M melanoma
[27] = test system: ACHN renal
[28] = test system: A498 renal
[29] = test system: MDA-MB-231 breast
[30] = test system: K-562 leukemia
[31] = test system: T-47D breast
[32] = test system: M14 melanoma
[33] = test system: NCI-H23 lung
[34] = test system: SN12C renal
[35] = test system: SK-MEL-28 melanoma
[36] = test system: NCI/ADR-RES ovarian
[37] = test system: EKVX NSCLC
[38] = test system: U251 CNS
[39] = test system: SK-MEL-2 melanoma
[40] = test system: OVCAR-3 ovarian
[41] = test system: RPMI-8226 leukemia
[42] = test system: TK-10 renal
[43] = test system: HOP-62 NSCLC
[44] = test system: SF-539 CNS
[45] = test system: SK-MEL-5 melanoma
[46] = test system: A549 NSCLC
[47] = test system: HCC-2998 colon
[48] = test system: 786-0 renal
[49] = test system: NCI-H226 lung
[50] = test system: SF-268 CNS
[51] = test system: CAKI-1 renal
[52] = test system: IGROV1 ovarian
[53] = test system: NCI-H460 lung
[54] = test system: HOP-92 NSCLC
[55] = test system: LOX IMVI melanoma
[56] = test system: MDA-MB-435
[57] = test system: MCF7 breast

## CCOC(=O)c1cnc2c(C)cc(C)cc2c1NCCCN(C)C
[1]
  GI50: 5.67 µM
  TGI: > 100 µM
[2]
  GI50: 3.98 µM
  TGI: 32.4 µM
[3]
  GI50: 4.53 µM
  TGI: 46.1 µM
[4]
  GI50: 4.08 µM
  TGI: 85.1 µM
[5]
  GI50: 2.52 µM
  TGI: 8.21 µM
[6]
  GI50: 2.74 µM
  TGI: 17.4 µM
[7]
  GI50: 2.87 µM
  TGI: > 100 µM
[8]
  GI50: 5.6 µM
  TGI: 57.1 µM
[9]
  GI50: 5.27 µM
  TGI: 60.1 µM
[10]
  GI50: 1.58 µM
  TGI: 3.55 µM
[11]
  GI50: 5.86 µM
  TGI: 25 µM
[12]
  GI50: 11.5 µM
  TGI: 39.9 µM
[13]
  GI50: 4.37 µM
  TGI: 28.3 µM
[14]
  GI50: 4.58 µM
  TGI: 33.7 µM
[15]
  GI50: 1.53 µM
  TGI: 3.85 µM
[16]
  GI50: 4.15 µM
  TGI: 27.2 µM
[17]
  GI50: 3.69 µM
  TGI: 51.7 µM
[18]
  GI50: 13.6 µM
  TGI: 62.7 µM
[19]
  GI50: 10.2 µM
  TGI: 26.2 µM
[20]
  GI50: 2.74 µM
  TGI: 21.4 µM
[21]
  GI50: 3.43 µM
  TGI: 41.7 µM
[22]
  GI50: 3.25 µM
  TGI: 14 µM
[23]
  GI50: 3.3 µM
  TGI: 37.2 µM
[24]
  GI50: 11.2 µM
  TGI: 35 µM
[25]
  GI50: 3.8 µM
  TGI: 55.8 µM
[26]
  GI50: 5.84 µM
  TGI: 21.7 µM
[27]
  GI50: 3.09 µM
  TGI: 40.4 µM
[28]
  GI50: 2.85 µM
  TGI: 14.9 µM
[29]
  GI50: 3.1 µM
  TGI: 20.4 µM
[30]
  GI50: 4.81 µM
  TGI: 35.2 µM
[31]
  GI50: 4.73 µM
  TGI: 29.4 µM
[32]
  GI50: 4.67 µM
  TGI: 17.5 µM
[33]
  GI50: 4.29 µM
  TGI: 21.4 µM
[34]
  GI50: 3.82 µM
  TGI: > 100 µM
[35]
  GI50: 13 µM
  TGI: 26.1 µM
[36]
  GI50: 3.57 µM
  TGI: 78.3 µM
[37]
  GI50: 4.22 µM
  TGI: 35.6 µM
[38]
  GI50: 4.66 µM
  TGI: 76.2 µM
[39]
  GI50: 9.7 µM
  TGI: 31.7 µM
[40]
  GI50: 3.62 µM
  TGI: 27.5 µM
[41]
  GI50: 17 µM
  TGI: 46.5 µM
[42]
  GI50: 3.91 µM
  TGI: 88 µM
[43]
  GI50: 4.66 µM
  TGI: 44.2 µM
[44]
  GI50: 3.48 µM
  TGI: 14 µM
[45]
  GI50: 4.38 µM
  TGI: 16.5 µM
[46]
  GI50: 5.29 µM
  TGI: > 100 µM
[47]
  GI50: 5.35 µM
  TGI: 19.6 µM
[48]
  GI50: 4.91 µM
  TGI: 25.7 µM
[49]
  GI50: 4.12 µM
  TGI: 26.8 µM
[50]
  GI50: 3.91 µM
  TGI: 23.9 µM
[51]
  GI50: 3.9 µM
  TGI: > 100 µM
[52]
  GI50: 4.98 µM
  TGI: > 100 µM
[53]
  GI50: 2.57 µM
  TGI: 9.14 µM
[54]
  GI50: 2.08 µM
  TGI: 12.5 µM
[55]
  GI50: 2.83 µM
  TGI: 13.6 µM
[56]
  GI50: 4.09 µM
  TGI: 18.1 µM
[57]
  GI50: 2.78 µM
  TGI: 15.7 µM
